The values that follow come from the Kinase Knowledgebase extract (Sharma et al. 2016).

As usually defined, the IC50 is the concentration that gives 50% inhibition. Higher therefore signals weaker potency.

Bounds are passed on as bounds.

The target of this assay is EGFR (human) (UniProt P00533).
Sequence of EGFR (human) (P00533 whole entry, looked up): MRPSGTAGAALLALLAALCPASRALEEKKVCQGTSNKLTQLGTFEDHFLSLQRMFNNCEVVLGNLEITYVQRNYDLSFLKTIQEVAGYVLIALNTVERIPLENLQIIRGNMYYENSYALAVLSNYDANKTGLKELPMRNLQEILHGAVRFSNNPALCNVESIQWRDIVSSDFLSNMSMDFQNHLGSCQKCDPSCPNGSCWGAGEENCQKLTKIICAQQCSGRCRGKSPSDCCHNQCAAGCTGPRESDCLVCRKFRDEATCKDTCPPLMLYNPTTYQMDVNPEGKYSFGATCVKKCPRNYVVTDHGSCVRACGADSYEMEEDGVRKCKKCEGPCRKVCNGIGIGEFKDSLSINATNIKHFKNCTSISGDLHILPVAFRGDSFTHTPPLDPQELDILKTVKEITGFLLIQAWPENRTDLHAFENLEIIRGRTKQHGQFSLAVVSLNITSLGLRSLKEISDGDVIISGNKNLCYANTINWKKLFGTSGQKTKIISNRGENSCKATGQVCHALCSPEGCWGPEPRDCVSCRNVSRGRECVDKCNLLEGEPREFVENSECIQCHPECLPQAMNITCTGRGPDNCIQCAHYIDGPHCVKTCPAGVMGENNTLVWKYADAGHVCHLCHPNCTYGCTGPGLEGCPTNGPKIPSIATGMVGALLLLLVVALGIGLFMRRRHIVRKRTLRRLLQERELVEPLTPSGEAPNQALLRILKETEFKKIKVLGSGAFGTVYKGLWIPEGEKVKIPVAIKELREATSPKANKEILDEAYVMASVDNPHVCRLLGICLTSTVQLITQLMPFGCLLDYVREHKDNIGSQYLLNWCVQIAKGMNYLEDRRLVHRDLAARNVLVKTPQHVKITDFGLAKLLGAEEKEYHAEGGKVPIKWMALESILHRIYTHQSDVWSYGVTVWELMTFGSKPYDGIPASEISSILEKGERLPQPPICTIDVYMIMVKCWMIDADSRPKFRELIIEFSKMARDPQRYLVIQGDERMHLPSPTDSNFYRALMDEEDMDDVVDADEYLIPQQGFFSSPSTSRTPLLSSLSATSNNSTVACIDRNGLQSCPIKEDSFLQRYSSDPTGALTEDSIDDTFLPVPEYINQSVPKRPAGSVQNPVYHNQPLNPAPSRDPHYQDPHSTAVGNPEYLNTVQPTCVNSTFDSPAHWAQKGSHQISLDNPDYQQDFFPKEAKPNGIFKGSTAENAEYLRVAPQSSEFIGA
For `COc1cc2c(cc1Nc1nccc(-c3sc(C(C)C)nc3-c3cccc(NS(=O)(=O)c4c(F)cccc4F)c3)n1)N(C(=O)CN(C)C)CC2`, the IC50 lay within 100 to 1000 nM.
In the case of `COc1cc(N2CCN(CCS(C)(=O)=O)CC2)c(C)cc1Nc1nccc(-c2sc(C3CCOCC3)nc2-c2cccc(NS(=O)(=O)c3c(F)cccc3F)c2)n1` it was < 100 nM; in that of `COc1cc(N2CCN(CCS(C)(=O)=O)CC2)c(C)cc1Nc1nccc(-c2sc(C(C)C)nc2-c2cccc(NS(=O)(=O)c3c(F)cccc3F)n2)n1`, < 100 nM; in that of `COc1cc(N2CCN(CCS(C)(=O)=O)CC2)c(C)cc1Nc1nccc(-c2sc(CC(C)C)nc2-c2cccc(NS(=O)(=O)c3c(F)cccc3F)c2)n1`, < 100 nM.
On to `COc1cc(Nc2nccc(-c3sc(C(C)C)nc3-c3cccc(NS(=O)(=O)c4c(F)cccc4F)c3)n2)cc(OC)c1OC1CCN(CCS(C)(=O)=O)CC1`, for which the IC50 is < 100 nM.
With `COc1cc(N2CCN(CCS(C)(=O)=O)CC2)c(C)cc1Nc1nccc(-c2sc(C(C)C)nc2-c2cccc(NS(=O)(=O)c3c(F)cccc3F)c2F)n1` the figure was < 100 nM; with `COc1cc(CCN2CCCCC2)c(F)cc1Nc1nccc(-c2sc(C(C)C)nc2-c2cccc(NS(=O)(=O)c3c(F)cccc3F)c2)n1`, 100 to 1000 nM; with `CC(C)c1nc(-c2ccc(F)c(NS(=O)(=O)c3ccccc3C#N)c2)c(-c2ccnc(Nc3ccc(N4CCOCC4)nc3)n2)s1`, 100 to 1000 nM.
For `COc1ccc(Nc2nccc(-c3sc(C(C)C)nc3-c3cccc(NS(=O)(=O)c4ccccc4)c3)n2)cc1N1CCN(CCC#N)CC1`, the IC50 was < 100 nM.
With `CC(C)c1nc(-c2cccc(NS(=O)(=O)c3ccccc3)c2)c(-c2ccnc(Nc3ccc(N4CCOCC4)nc3)n2)s1` the figure was 100 to 1000 nM; with `COc1cc(N2CCN(CCS(C)(=O)=O)CC2)c(C)cc1Nc1nccc(-c2sc(C(C)C)nc2-c2cccc(NS(=O)(=O)c3cccs3)c2)n1`, < 100 nM; with `CCNc1nc(-c2cccc(NS(=O)(=O)c3ccccc3)c2)c(-c2ccnc(Nc3ccc(OCCN4CCCC4)c(F)c3)n2)s1`, < 100 nM.
As to `COc1cc(N2CCN(CCS(C)(=O)=O)CC2)c(C)cc1Nc1nccc(-c2oc(N3CCCC3)nc2-c2cccc(NS(=O)(=O)c3c(F)cccc3F)c2)n1`, the IC50 fell in the range of 100 to 1000 nM.
With `COc1ccc(S(C)(=O)=O)cc1Nc1nccc(-c2sc(C(C)C)nc2-c2cccc(NS(=O)(=O)c3c(F)cccc3F)n2)n1` the figure was 100 to 1000 nM; with `CCc1nc(-c2cccc(CNS(=O)(=O)c3ccccc3)c2)c(-c2ccnc(Nc3ccc(N4CCN(CCS(C)(=O)=O)CC4)c(F)c3)n2)s1`, 100 to 1000 nM; with `CCNc1nc(-c2ccc(F)c(NS(=O)(=O)c3c(F)cccc3F)c2)c(-c2ccnc(Nc3ccc(N4CCOCC4)nc3)n2)s1`, 100 to 1000 nM.
`COc1ccc(S(C)(=O)=O)cc1Nc1nccc(-c2sc(C(C)C)nc2-c2cccc(NS(=O)(=O)c3c(F)cccc3F)c2F)n1` yielded an IC50 of 100 to 1000 nM.
In the case of `CC(C)c1nc(-c2ccc(F)c(NS(=O)(=O)c3c(F)cccc3F)c2)c(-c2ccnc(Nc3ccc(N4CCN(CCS(C)(=O)=O)CC4)c(F)c3)n2)s1` it was 100 to 1000 nM; in that of `O=S(=O)(Nc1cccc(-c2nc(N3CCCC3)sc2-c2ccnc(Nc3ccc(N4CCN(CCF)CC4)c(F)c3)n2)c1)c1c(F)cccc1F`, < 100 nM.
In the case of `O=S(=O)(Nc1cccc(-c2nc(N3CCOCC3)sc2-c2ccnc(Nc3ccc(N4CCOCC4)nc3)n2)c1F)c1c(F)cccc1F`, the IC50 fell in the range of 100 to 1000 nM.
In the case of `CN(C)c1nc(-c2ccc(F)c(NS(=O)(=O)c3c(F)cccc3F)c2)c(-c2ccnc(Nc3ccc(N4CCOCC4)nc3)n2)s1` it was 100 to 1000 nM; in that of `COc1cc(N2CCC3(CC2)CCN(S(C)(=O)=O)CC3)c(C)cc1Nc1nccc(-c2sc(C(C)C)nc2-c2cccc(NS(=O)(=O)c3c(F)cccc3F)c2F)n1`, 100 to 1000 nM; in that of `COc1cc(N2CCN(CCF)CC2)ccc1Nc1nccc(-c2sc(C(C)C)nc2-c2cccc(NS(=O)(=O)c3c(F)cccc3F)c2)n1`, 100 to 1000 nM.
With `O=S(=O)(Nc1cc(-c2nc(N3CCOCC3)sc2-c2ccnc(Nc3ccc4c(c3)OCCO4)n2)ccc1F)c1c(F)cccc1F` the figure was 100 to 1000 nM; with `COc1cc(OCCN2CCOCC2)c(C)cc1Nc1nccc(-c2sc(C(C)C)nc2-c2cccc(NS(=O)(=O)c3c(F)cccc3F)c2F)n1`, 100 to 1000 nM; with `CC(C)c1nc(-c2cccc(NS(=O)(=O)c3c(F)cccc3F)c2)c(-c2ccnc(Nc3ccc(N4CC[C@@H](O)C4)nc3)n2)s1`, 100 to 1000 nM.
With `COc1cc(N2CCN(CCS(C)(=O)=O)CC2)c(C)cc1Nc1nccc(-c2sc(C(C)C)nc2-c2cc(NS(=O)(=O)c3c(F)cccc3F)ccc2F)n1`, the IC50 was in the range of 100 to 1000 nM.
Take `CCNc1nc(-c2cccc(NS(=O)(=O)c3c(F)cccc3F)c2)c(-c2ccnc(Nc3cc(C)c(N4CCN(CCS(C)(=O)=O)CC4)cc3OC)n2)s1`: the IC50 is < 100 nM.
The compound `Cc1ccc(-c2nc(C(C)C)sc2-c2ccnc(Nc3ccc(N4CCOCC4)nc3)n2)cc1NS(=O)(=O)c1c(F)cccc1F` displayed an IC50 of 100 to 1000 nM.
For `COc1cc(N2CCN(CCS(C)(=O)=O)CC2)c(C)cc1Nc1nccc(-c2sc(N3CCOCC3)nc2-c2cccc(NS(=O)(=O)c3c(F)cccc3F)c2)n1`, the IC50 is < 100 nM.
In turn, `CC(C)c1nc(-c2cccc(NS(=O)(=O)c3c(F)cccc3F)c2)c(-c2ccnc(Nc3ccc(N4CCN(CCS(C)(=O)=O)CC4)c(F)c3)n2)s1` came in with an IC50 of 100 to 1000 nM.
Turning to `CN1CCN(c2nc(-c3ccc(F)c(NS(=O)(=O)c4c(F)cccc4F)c3)c(-c3ccnc(Nc4ccc(N5CCOCC5)nc4)n3)s2)CC1`, the IC50 is 100 to 1000 nM.
For `Cc1cc(N2CCC(N3CCCCC3)CC2)ccc1Nc1nccc(-c2sc(C(C)C)nc2-c2cccc(NS(=O)(=O)c3c(F)cccc3F)c2)n1`, the IC50 is < 100 nM.
Take `CC(C)c1nc(-c2ccc(F)c(NS(=O)(=O)c3c(F)cccc3F)c2)c(-c2ccnc(Nc3ccc(N4CCN5CCOC[C@H]5C4)nc3)n2)s1`: the IC50 was 100 to 1000 nM.
`COc1cc(N2CCN(CCS(C)(=O)=O)CC2)c(C)cc1Nc1nccc(-c2sc(C(C)C)nc2-c2cccc(NS(=O)(=O)c3cccnc3)c2)n1` gave an IC50 of 100 to 1000 nM.
With `CC(C)c1nc(-c2ccc(F)c(NS(=O)(=O)c3ccccc3F)c2)c(-c2ccnc(Nc3ccc(N4CCN(CCS(C)(=O)=O)CC4)c(F)c3)n2)s1` the figure was 100 to 1000 nM; with `COc1cc(N2CCN(CCS(C)(=O)=O)CC2)c(C)cc1Nc1nccc(-c2scnc2-c2cccc(NS(=O)(=O)c3c(F)cccc3F)c2)n1`, < 100 nM.
Regarding `CC(C)c1nc(-c2ccc(F)c(NS(=O)(=O)c3c(F)cccc3F)c2)c(-c2ccnc(Nc3ccnc(N4CCOCC4)c3)n2)s1`, the IC50 was in the range of 100 to 1000 nM.
Regarding `CC(C)c1nc(-c2ccc(F)c(NS(=O)(=O)c3c(F)cccc3F)c2)c(-c2ccnc(Nc3cccc(CCS(N)(=O)=O)c3)n2)s1`, the IC50 fell in the range of 100 to 1000 nM.
In the case of `CC(C)c1nc(-c2cccc(NS(=O)(=O)c3c(F)cccc3F)c2)c(-c2ccnc(Nc3ccc(N4CCN(C(C)C)CC4)cc3O)n2)s1` it was 100 to 1000 nM.
In the case of `CC(C)c1nc(-c2cccc(NS(=O)(=O)c3c(F)cccc3F)c2)c(-c2ccnc(Nc3ccc(N4CCOCC4)c(F)c3)n2)o1` it was 100 to 1000 nM; in that of `CC(C)c1nc(-c2cccc(NS(=O)(=O)c3c(F)cccc3F)c2)c(-c2ccnc(Nc3ccc(N4CCN(CCF)CC4)c(F)c3)n2)s1`, 100 to 1000 nM; in that of `CCOc1ccc(Nc2nccc(-c3sc(N4CCCC4)nc3-c3cccc(NS(=O)(=O)c4c(F)cccc4F)c3)n2)cc1N1CCN(CCS(C)(=O)=O)CC1`, < 100 nM.
In the case of `COc1ccc(Nc2nccc(-c3sc(C(C)C)nc3-c3cccc(NS(=O)(=O)Cc4ccccc4)c3)n2)cc1N1CCN(CCS(C)(=O)=O)CC1` it was < 100 nM; in that of `CC(C)c1nc(-c2cccc(NS(=O)(=O)c3ccccc3)c2)c(-c2ccnc(Nc3ccc(CC4CCN(CCS(C)(=O)=O)CC4)c(F)c3)n2)s1`, 100 to 1000 nM; in that of `CCc1nc(-c2cccc(CNS(=O)(=O)c3ccccc3)c2)c(-c2ccnc(Nc3ccc(N4CCN(C(C)=O)CC4)nc3)n2)s1`, 100 to 1000 nM.
For the compound `CC(C)c1nc(-c2cccc(NS(=O)(=O)c3c(F)cccc3F)c2)c(-c2ccnc(Nc3ccc(N4CCN(CCO)CC4)nc3)n2)s1`, the IC50 is < 100 nM.
As for `COc1ccc(Nc2nccc(-c3sc(C(C)C)nc3-c3cccc(NS(=O)(=O)c4c(F)cccc4F)c3)n2)cc1N(C)C`, the IC50 was < 100 nM.
As to `CC(=O)N1CCN(c2ccc(Nc3nccc(-c4sc(C(C)C)nc4-c4cccc(NS(=O)(=O)c5cn(C)cn5)c4)n3)cn2)CC1`, the IC50 was < 100 nM.
`COc1cc(N2CCN(CCS(C)(=O)=O)CC2)c(C)cc1Nc1nccc(-c2sc(C3CC3)nc2-c2cccc(NS(=O)(=O)c3c(F)cccc3F)c2)n1` displayed an IC50 of 100 to 1000 nM.
In the case of `CC(C)c1nc(-c2cccc(NS(=O)(=O)c3cccnc3)c2)c(-c2ccnc(Nc3ccc(N4CCOCC4)nc3)n2)s1` it was 100 to 1000 nM.
In the case of `CC(C)c1nc(-c2cccc(NS(=O)(=O)c3c(F)cccc3F)c2)c(-c2ccnc(Nc3ccc(N4CCOCC4)c(C(=O)O)c3)n2)s1` it was 100 to 1000 nM; in that of `Cc1cc(Nc2nccc(-c3sc(C(C)C)nc3-c3ccc(F)c(NS(=O)(=O)c4c(F)cccc4F)c3)n2)ccn1`, 100 to 1000 nM; in that of `O=S(=O)(Nc1cc(-c2nc(N3CCCC3)sc2-c2ccnc(Nc3ccc(N4CCOCC4)nc3)n2)ccc1F)c1c(F)cccc1F`, 100 to 1000 nM.
In the case of `COc1cc(N2CCN(CCS(C)(=O)=O)CC2)c(C)cc1Nc1nccc(-c2sc(C(C)C)nc2-c2cccc(NS(=O)(=O)c3c(F)cccc3F)c2)n1`, the IC50 is < 100 nM.
Take `CC(C)c1nc(-c2cc(F)cc(NS(=O)(=O)c3c(F)cccc3F)c2)c(-c2ccnc(Nc3ccc(N4CCOCC4)nc3)n2)s1`: the 50% inhibitory concentration (IC50) fell in the range of 100 to 1000 nM.
With `CS(=O)(=O)CCN1CCN(c2ccc(Nc3nccc(-c4oc(N5CCCC5)nc4-c4cccc(NS(=O)(=O)c5c(F)cccc5F)c4F)n3)cc2F)CC1` the figure was 100 to 1000 nM.
With `CC(=O)N1CCN(c2ccc(Nc3nccc(-c4sc(C(C)C)nc4-c4cccc(NS(=O)(=O)c5cccc(F)c5)c4)n3)cn2)CC1` the figure was 100 to 1000 nM; with `Nc1nc(-c2cccc(NS(=O)(=O)c3c(F)cccc3F)c2)c(-c2ccnc(Nc3ccc(N4CCOCC4)nc3)n2)s1`, 100 to 1000 nM.
For `CC(C)c1nc(-c2cccc(NS(=O)(=O)c3c(F)cccc3F)c2)c(-c2ccnc(Nc3ccc(N4CCN5CCOC[C@H]5C4)nc3)n2)s1`, the IC50 lay in the range of 100 to 1000 nM.
